Laboratory results: patent US10351915B2 (Berg LLC, priority 2009, dated 2019)

Legend:
PC-3 = test: Nexin assay for apoptosis (flow cytometry); type: cell-based; details: 50 μM and 100 μM Q10, 24 hours
Excerpt: (§1) The 7AAD dye will enter into cells with permeabilized cell membranes; primarily those cells that are in late apoptosis. Annexin-V-PE is a dye that binds to Phosphotidyl serine, which is exposed on the outer surface of the plasma membrane in early apoptotic cells. The Nexin reagent thus can be used to differentiate between different populations of apoptotic cells in a flow cytometer.

PaCa2 = test: Nexin assay for apoptosis (flow cytometry); type: cell-based; details: 50 μM and 100 μM Q10, 24 hours
Excerpt: as §1

SK-MEL28 = test: Nexin assay for apoptosis (flow cytometry); type: cell-based; details: 50 μM and 100 μM Q10, 24 hours
Excerpt: as §1

[1] = system: HepG2 (liver cancer) cells; test: PCR Diabetes Array; type: cell-based; details: 100 μM Q10, 48 hours
Procedure: The treatment was initiated on 1×10^5 cells per well, following the procedure utilized in the PaCa2 cells (above, Examples 9-11). However, the total amount of RNA that was extracted from these samples was lower than expected. Reverse transcription is normally done using 1 μg total RNA (determined by measurement at 260 nm). The maximum volume that can be used per reverse transcription is 8 μl.

SDH Subunit B = test: Western blot, Succinate Dehydrogenase B in mitochondrial preparations; type: cell-based; details: mitochondrial preparations of cancer cells
Procedure: The above blots were stripped by incubating for 30 minutes with methanol, followed by two 10 minute washes with TBS-T, then 30 minutes of incubation with Stripping buffer at 50 deg C., and followed by two washes with 100 ml or more of TBS-T for 30′ each. The blots were scanned in laser scanner to check for complete stripping. The blots were activated with methanol for 5 seconds, washed with water for 5 minutes, and TBST for 15 minutes. The blots were blocked for 1 hour with 5% blocking reagent in TBS-T at room temperature and then washed 3 times with TBS-T (1×-15′; 2×5′ each) and probed with the primary antibody for PKM2, SDHB or SDHC in 5% BSA in TBS-T by incubation overnight at 4 deg C. with gentle shaking. The primary antibody for SDHC (ABNOVA H00006391-M02; antimouse) was at 1:500 dilution. The primary antibody for SDHB was from Abcam ab4714-200; antimouse; at 1:1000 dilution. The primary antibody for Pyruvate Kinase M2 (PKM2) was from Novus Biologicals H00005315-D0IP; antirabbit; at 1:500 dilution. After incubation with primary antibodies, the membranes were washed 3 times with TBS-T (1×-15′; 2×5′ each) and probed with the secondary antibody (SDHB & C antimouse; and PKM2 antirabbit; 1:10,000 dilution) for 1 h on the orbital tilting shaker at room temperature. […]

Hif1 alpha = test: Western blot, Hif1 alpha levels; type: cell-based, human; details: whole cell lysates of normal cells
Procedure: The Actin blots were stripped by incubating for 30 minutes with methanol, followed by two 10 minute washes with TBS-T, then 30 minutes of incubation with Stripping buffer at 50 deg C., and followed by two washes with 100 ml or more of TBS-T for 30′ each. The blots were scanned in laser scanner to check for complete stripping. The blots were activated with methanol for 5 seconds, washed with water for 5 minutes, and TBST for 15 minutes. The blots were blocked for 1 hour with 5% blocking reagent in TBS-T at room temperature and then washed 3 times with TBS-T (1×-15′; 2×5′ each) and probed with the primary antibody for Hif 1 alpha, Caspase 3 or PDHB in 5% BSA (at 1:200 by incubation overnight at 4 deg C. with gentle shaking. The primary antibody for Hif 1 alpha (Abcam ab2185; antirabbit) was at 1:500 dilution in 5% BSA. The primary antibody for Caspase 3 (Santacruz sc7272; antirabbit) was at 1:200 dilution in 5% BSA. The primary antibody for Pyruvate Dehydrogenase beta (PDHB) (Novus Biologicals H00005162-M03; antimouse) was at 1:500 dilution in 5% BSA. After incubation with primary antibodies, the membranes were washed 3 times with TBS-T (1×-15′; 2×5′ each) and probed with the secondary antibody (PDHB antimouse; Hif 1a and Caspase 3 antirabbit; 1:10,000 dilution) for 1 h at room temperature. […]

HDFa cells = test: Oxygen consumption rate (OCR), SeaHorse XF analyzer; type: cell-based, human; details: normal cells (HDFa)
Excerpt: (§2) (SeaHorse Biosciences Inc, North Billerica, Mass.).
In this experiment, the OCR and extracellular acidification rate (ECAR) in normal cells lines were obtained in the presence and absence of CoQ10 to determine baseline values. It was observed that in its native nutrient environment, the basal OCR rates in normal cells lines are different, and are usually a function of the physiological roles of the cells in the body.
FIGS. 37 and 38 below describes the OCR in HDFa and HASMC cells grown in physiologically normal glucose (about 4.6 mM) and high glucose (hyperglycemic) conditions.

PaCa-2 cells = test: Extracellular acidification rate (ECAR), SeaHorse XF analyzer; type: cell-based; details: normoxia, high glucose
Procedure: as §2
In contrast to normal cells, cancer cells are phenotypically primed to use high glucose for ATP generation (enhanced glycolysis) resulting in higher ECAR (Table 129, ECAR for untreated normoxia 17 mM) at 21 mpH/min. […] The associated decrease in OCR in these cells was likely associated with increased efficiency of the mitochondrial OXPHOS.

## COC1=C(OC)C(=O)C(C/C=C(\C)CC/C=C(\C)CC/C=C(\C)CC/C=C(\C)CC/C=C(\C)CC/C=C(\C)CC/C=C(\C)CC/C=C(\C)CC/C=C(\C)CCC=C(C)C)=C(C)C1=O [Q10, Coenzyme Q10]
PC-3
  early and late apoptotic population: an increase in both early and late apoptotic population
PaCa2
  increase in both early and late apoptotic cells: 5-10 % of gated cells
SK-MEL28
  apoptotic population: an increase only in early apoptotic population
[1]
  PPARGCIA mRNA: normalized or were slightly upregulated
SDH Subunit B
  SDH protein levels: increase SDH protein levels
Hif1 alpha
  lower band of Hif1a: showed a decrease as well
HDFa cells
  OCR: influenced OCR
PaCa-2 cells
  ECAR rates: significant decrease in ECAR rates
